“And” between values parts separate entries of the source, which are not always exact repeats. Equal values may be shown once. Read-outs that look alike come from different tables or passages of the source.
Tests used:
[1] = tested on: atherosclerosis in ApoE knock out mouse on high fat diet
Text: 10 ApoE ko mice were fed with regular chow diet and used as negative control group. 50 ApoE ko mice were fed with high fat diet (35% kcal fat, 1% cholesterol) for 8 weeks, and then the plasma samples were collected for lipid profile measurement before the treatment. 50 ApoE ko mice were assigned into 5 groups based on the fasting overnight plasma TC and HDL level.
5.2. Study Timeline: • 23 Dec. 2011: 60 ApoE mice arrived at chempartner and were housed in the animal facility in the building #3 for the acclimation. • 6 Jan. 2012: Measured the body weight for each mouse. 50 mice were fed with high fat diet and 10 mice were fed with normal chow diet. • 2 Mar. 2012: All mice were fasted over night and plasma samples (about 300 ul whole blood) were collected for lipid profile measurement before treatment with RAAS antibody. • 19 Mar. 2012 to 6 Apr. […] 2012: All mice were fasted over night and plasma sample for each mouse (about 300 ul whole blood) was collected for lipid profile measurement after 16 weeks treatment. Blood glucose was also measured for each mouse. • 9 Jul. 2012: The study was terminated after 16 weeks treatment. Measure BW, sacrificed each mouse, dissected the aorta, heart, liver and kidney and fixed them in 4% PFA.
Antibody products were administrated by intraperitoneal injection every two days (Monday, Wednesday, and Friday). and the positive compound was administered by p.o every day.
The body weight was weighed weekly during the period of treatment. The fasting overnight blood glucose was measured at the end of study by Roche glucometer.
About 300 ul of blood sample was collected from the orbital vein for each mouse and centrifuged at 7000 rpm for 5 min at 4E and the plasma lipid profile was measured by Roche Modular automatic biochemistry analyzer in DaAn Medical Laboratory
After RAAS antibody products treatment for 16 weeks, all mice were sacrificed. Measured body weight and collected blood sample for each mouse. Weighed liver weight and saved a tiny piece of liver into 4% paraformaldehyde (PFA) fixation solution for further analysis. At same time, take the photos with heart, lung, aortas and two kidneys.
5.8. Oil Red Staining Procedure: • 1. Sacrificed the mice and dissected the heart, aorta, and arteries under dissecting microscope. • 2. Briefly wash with PBS and fixed in 4% paraformaldehyde (PFA) overnight at 4[…]. • 3. Rinse with 60% isopropanol • 4. Stain with freshly prepared Oil Red O working solution 10 min. • 1). Oil red O stock stain: 0.5% powder in isopropanol • 2). Working solution: dilute with distilled water (3:2) and filter with membrane (0.22 um) • 5. Rinse with 60% isopropanol 10 second. • 6. Dispel the adherent bit fat outside of the aorta under the dissecting microscope. • 7. Cut the vascular wall gently and keep the integrated arteries using the micro scissors. • 8. Unfold the vascular inner wall with the cover slides and fix it by water sealing tablet.
Scanning the glasses slides with the Aperio ScanScope system and analyze with the image proplus software to measure the area of atherosclerotic plaque lesion. The results were expressed as the percentage of the total aortic surface area covered by lesions. The operation procedure of software was briefly described as follow: Converted the sys version photos into JPG version, then calibrated it and subsequently selected the red regions and then calculate the total area automatically by image proplus software.
The results were expressed as the Mean±SEM and statistically evaluated by student's t-test.

[2] = tested on: fatty streak lesions in rabbits on high fat diet; format: in vivo, rabbit; parameters: HDL-C, Wk 0 / HDL-C, Wk 18 or wk 21 / Fatty streak lesions area, Compare to wk 10 of control group / Fatty streak lesions area, Compare to wk 18 of control group: unit not given here; conditions: for lipid con. at dissected aorta: triglyceride content; for increase of area of fatty streak lesion: control group 187%
Procedure: The rabbits were fasted for 12 hrs before the beginning of the experiments. Blood parameters were then tested as the normal level of plasma indicators. A total of 52 rabbits were purchased at different time, four of them were used as normal control and fed with normal diet the whole time during the experiments. […] Plasma concentrations of total cholesterol (TC), […] (TG), low density lipoprotein-cholesterol (LDL-C), very low density lipoprotein-cholesterol (VLDL-C), high density lipoprotein-cholesterol (HDL-C) were quantified by enzymatic assays. TC/HDL-C or ([…] ratios were then determined. Animals were sacrificed under deep anesthesia with sodium pentobarbital 25 mg/kg IV. The entire aorta from the aortic valve to the iliac bifurcation was removed from each rabbit and opened longitudinally. […] Atheromatous lesions were measured without staining Atheromatous lesions were manually traced in the photographs, and the percent area of the atheromatous lesions was calculated. Sample of aorta from animals were homogenated. And the content of lipid was determined.

[3] = APOA1 group 1, Wk 0 (start of high fat diet)
[4] = APOA1 group 1, Wk 10 (before APOA1 administration)
[5] = APOA1 group 1, Wk 18 (end of APOA1 administration)
[6] = APOA1 group 2, Wk 0 (start of high fat diet)
[7] = APOA1 group 2, Wk 10 (before APOA1 administration)
[8] = APOA1 group 2, Wk 21 (end of APOA1 administration)

human Apolipoprotein AI [APOAI]
plasma HDL ([1]; 16 week treatment): mild trend to decrease the HDL level | plaque area and percentage of plaque area from root to right renal artery ([1]; 16 weeks): no significant difference | plaque area and percentage of plaque area in arterial arch area ([1]; 16 weeks): No significant difference | plaque area and percentage of plaque area in total inner vascular area ([1]; 16 weeks): No significant difference | lipid profile ([1]; 16 weeks treatment): did not affect the lipid profile | plasma TG level ([1]; 16 weeks treatment): no effect | plaque lesion area of aorta ([1]; 16 weeks treatment, atorvastatin 40 mg/kg): did not reduce the plaque lesion area of aorta | deaths in treatment groups ([1]; after 15 doses, i.p. daily on weekdays): several mice died in the treatment groups | body weight vs vehicle group ([1]; mouse, in vivo): no significant difference | TC/HDL-C [2, 3]: 1.938 | plasma HDL-C [2, 3]: 0.748 | plasma LDL-C [2, 3]: 0.282 | plasma TCH [2, 3]: 1.152 | plasma TG [2, 3]: 0.967 | plasma VLDL-C [2, 3]: 0.870 | TC/HDL-C [2, 4]: 6.560 | plasma HDL-C [2, 4]: 8.261 | plasma LDL-C [2, 4]: 21.157 | plasma TCH [2, 4]: 36.153 | plasma TG [2, 4]: 5.191 | plasma VLDL-C [2, 4]: 14.996 | TC/HDL-C [2, 5]: 3.000 | plasma HDL-C [2, 5]: 1.46 | plasma LDL-C [2, 5]: 2.60 | plasma TCH [2, 5]: 3.69 | plasma TG [2, 5]: 1.17 | plasma VLDL-C [2, 5]: 1.09 | TC/HDL-C [2, 6]: 4.185 | plasma HDL-C [2, 6]: 0.432 | plasma LDL-C [2, 6]: 0.472 | plasma TCH [2, 6]: 1.430 | plasma TG [2, 6]: 0.93 | plasma VLDL-C [2, 6]: 0.958 | TC/HDL-C [2, 7]: 3.667 | plasma HDL-C [2, 7]: 10.168 | plasma LDL-C [2, 7]: 19.24 | plasma TCH [2, 7]: 34.683 | plasma TG [2, 7]: 4.507 | plasma VLDL-C [2, 7]: 15.443 | TC/HDL-C [2, 8]: 3.844 | plasma HDL-C [2, 8]: 1.17 | plasma LDL-C [2, 8]: 2.19 | plasma TCH [2, 8]: 3.322 | plasma TG [2, 8]: 1.94 | plasma VLDL-C [2, 8]: 1.14 | HDL-C, Wk 0 ([2]; APOAI Group 1): 0.748 | lipid con. at dissected aorta ([2]; APOAI Group 1 (n = 7)): 0.025 ± 0.0095 µmol/mg | Fatty streak lesions area ([2]; APOAI Group 1, Wk 18): 43.84% | Fatty streak lesions area, Compare to wk 10 of control group ([2]; APOAI Group 1, Wk 18): 19.03 | Fatty streak lesions area, Compare to wk 18 of control group ([2]; APOAI Group 1, Wk 18): −27.36 | Fatty streak lesions area, Decrease % (compare to wk 18 of control group) ([2]; APOAI Group 1, Wk 18): 38.43% | Fatty streak lesions area, Increase % (compare to wk 10 of control group) ([2]; APOAI Group 1, Wk 18): 77% | HDL-C, Concentration increased ([2]; APOAI Group 1, wk 0 to wk 18): 0.716 | HDL-C, Fold increased ([2]; APOAI Group 1, wk 0 to wk 18): 1.436 | HDL-C, Wk 0 ([2]; APOAI Group 2): 0.432 | lipid con. at dissected aorta ([2]; APOAI Group 2 (n = 4)): 0.0267 ± 0.0054 µmol/mg | Fatty streak lesions area ([2]; APOAI Group 2, Wk 21): 50.51% | Fatty streak lesions area, Compare to wk 10 of control group ([2]; APOAI Group 2, Wk 21): 25.71 | Fatty streak lesions area, Compare to wk 18 of control group ([2]; APOAI Group 2, Wk 21): −20.69 | Fatty streak lesions area, Decrease % (compare to wk 18 of control group) ([2]; APOAI Group 2, Wk 21): 29.05% | Fatty streak lesions area, Increase % (compare to wk 10 of control group) ([2]; APOAI Group 2, Wk 21): 104% | HDL-C, Concentration increased ([2]; APOAI Group 2, wk 0 to wk 21): 0.992 | HDL-C, Fold increased ([2]; APOAI Group 2, wk 0 to wk 21): 3.078 | HDL-C, Wk 18 or wk 21 ([2]; APOAI group 1 (wk 18)): 1.464 | decrease of area of fatty streak lesion vs control group ([2]; APOAI group 1 (wk 18)): 38% and 38.43% | TC/HDL-C vs control group ([2]; APOAI group 1, P<0.05): significant decrease | VLDL-C vs control group ([2]; APOAI group 1, P<0.05): significant decrease | increase of area of fatty streak lesion ([2]; APOAI group 1): 77% | rest of plasma lipid values vs control group ([2]; APOAI group 1 and 2): no significant change | HDL-C, Wk 18 or wk 21 ([2]; APOAI group 2 (wk 21)): 1.423 | decrease of area of fatty streak lesion vs control group ([2]; APOAI group 2 (wk 21)): 29% and 29.05% | increase of area of fatty streak lesion ([2]; APOAI group 2): 104% | triglyceride content at dissected aorta vs control group ([2]; P<0.05): significantly lower | liver index vs control group ([2]; rabbit, in vivo): no difference | plasma lipid concentrations (TC, TG, LDL-C, VLDL-C, HDL-C) ([2]; vs animal without APOAI treatment): decrease in all plasma lipid concentrations | gross examination of inner surface of aorta ([2]; vs control group): no bumps on the inner surface of aorta | liver gross specimen ([2]; vs wk 10): less fatty change in gross specimen
